The results in this text go back to paper PMC8911025, “Design, Synthesis, and Biological Evaluation of New Azulene-Containing Chalcones” (Materials, 2022).

What all share (format): cell-based
The test system of series [1] is Escherichia coli ATCC 25922. The series can be described thus: MIC, binary serial dilution in 96-well plates. The following applies: ATCC25922; Escherichia coli ATCC 25922, 24 h at 37 °C. The procedure:
(§1) The antimicrobial activity of all compounds was assessed on Gram-positive bacteria (Staphylococcus aureus ATCC 25923), Gram-negative bacteria (Escherichia coli ATCC 25922, Pseudomonas aeruginosa ATCC 27853), and fungi (Candida parapsilosis ATCC 22019) using quantitative binary serial dilution method in 96-well plates. The negative control was represented by wells with culture medium, while positive control was the microbial strain in broth. Briefly, binary serial dilutions of the compounds performed in 100 μL of broth were seeded with microbial inoculum of 10^6 colony forming units (CFU)/mL and incubated for 24 h at 37 °C. […] Due to the fact that the obtained compounds were colored, after the incubation of the 96-well plates, from each well, 10 µL were seeded on agar plates (Plate Count Agar) to determine the inhibitory concentration. The same value of the inhibitory concentration was obtained in repeated experiments.
(§2) The antibacterial effect of the azulene moiety introduced in the chalcone structure was investigated against Gram-positive (Staphylococcus aureus ATCC 25923) and Gram-negative (Escherichia coli ATCC 25922, Pseudomonas aeruginosa ATCC 27853) bacteria, while the antifungal effect was tested against Candida parapsilosis ATCC 22019. To our knowledge, the antibacterial activity of azulene-containing chalcone compounds has not been reported previously; moreover, this is the first investigation of the biological properties of azulene-containing chalcones in general. The results expressed in terms of minimum inhibitory concentration (MIC) were determined by in vitro screening of the antimicrobial properties using the broth microdilution method and are summarized in Table 5.

For series [2], the system named is Pseudomonas aeruginosa ATCC 27853. The series can be described thus: MIC, binary serial dilution in 96-well plates. The settings on record: ATCC27853; Pseudomonas aeruginosa ATCC 27853, 24 h at 37 °C. The procedure: as §1, §2
In series [3] the test system is Staphylococcus aureus ATCC 25923. The series can be described thus: MIC, binary serial dilution in 96-well plates. The following applies: for MIC: ATCC25923, Staphylococcus aureus ATCC 25923, 24 h at 37 °C; for Aexp: Aexp = 0.1 + log (k/MIC), k = 1.250, compounds synthesized herein. The procedure:
as §1, §2

The subject of series [4] is Candida parapsilosis ATCC 22019. In words: MIC (antifungal), binary serial dilution in 96-well plates. The settings on record: Lodderomyces parapsilosis, ATCC22019; Candida parapsilosis ATCC 22019, 24 h at 37 °C. As to the method: as §1, §2
We further tested the azulene-containing chalcone compounds for antifungal activity against Candida parapsilosis ATCC 22019.

The subject of series [5] is Candida parapsilosis. In words: Antibiofilm activity (crystal violet, A490). The settings on record: Lodderomyces parapsilosis, biofilm, read-out: MBEC. As to the method: (§3) The effect of the chalcones on the biofilm formation was evaluated after the determination of the MICs. Briefly, the plates were emptied, washed to remove the nonadherent cells, fixed with methanol, and stained with crystal violet. The antibiofilm activity was determined after adding 33% acetic acid solution by measuring the absorbance at 490 nm, and the results are listed in Table 6.
(§4) The azulene-chalcone derivatives were tested for their ability to affect biofilm formation since 80% of the world’s microbial biomass is found in the biofilm state. The most efficient compound was again chalcone 6 with MBEC of 0.156–0.625 mg/mL (Table 6).

Series [6] has as its system Escherichia coli. In words: Antibiofilm activity (crystal violet, A490). The following applies: biofilm, read-out: MBEC. As to the method: as §3, §4
Series [7] has as its system Pseudomonas aeruginosa. In words: Antibiofilm activity (crystal violet, A490). The settings on record: biofilm, read-out: MBEC. As to the method: as §3, §4
Series [8] deals with Staphylococcus aureus. In words: Antibiofilm activity (crystal violet, A490). The settings on record: biofilm, read-out: MBEC. As to the method: as §3, §4
Series [9] is described as follows: Cell viability assay (CellTiter Glo). The settings on record: human; HEp-2 cells, 48 h, CellTiter Glo; read-out: IC50 (50% cytotoxic concentration). As to the method:
To assess the toxicity of the azulene-containing chalcones, the adherent cell line HEp-2 (American Cell Type Collection [ATCC] CCL-23^TM) was used.
In order to estimate the cytotoxicity of the compounds, HEp-2 cells (American Cell Type Collection (ATCC) CCL-23) were exposed to the azulene-containing chalcones at concentrations of 200, 100, 50, and 25 μg/mL and evaluated using CellTiter Glo kit (Promega, Madison, WI, USA) assay. The results presented in Figure 3 are expressed as viability percentages versus control.
In general terms: In ATP-based viability assays light output follows the ATP content of the culture.

Series [10] relates to caspase 8. The series can be described thus: Gene expression quantification (qPCR). The following applies: HEp-2, 100 µg/mL, 24 h. The procedure: (§5) The mechanism of azulene-containing chalcone toxicity was assessed by gene expression evaluation. HEp-2 cells were seeded in 6-well plates at a concentration of 3 × 10^5 cells/wells in DMEM:F12 supplemented with 10% FBS. The cells were treated with azulene-containing chalcone at a concentration of 100 µg/mL. After 24 h, the cells were harvested and centrifuged, and the pellet was subjected to total RNA extraction using Trizol reagent (Sigma, St. Louis, MO, USA). The cDNA was produced using 2 µg total RNA and High Capacity Reverse Transcription Kit (Thermo Fisher Scientific, Chelmsford, MA, USA). Fifty nanograms of cDNA was subjected to PCR reaction using Maxima SYBR Green/ROX qPCR Master Mix (Thermo Fisher Scientific, Chelmsford, MA, USA) and Origene primer pairs: caspase 3 (CAT#: HP207674) caspase 7 (CAT#: HP233752), caspase 8 (CAT#: HP234494), caspase 9 (CAT#: HP205155), caspase 10 (CAT#: HP228052). For NOX-4 and NOS2, the following primers were used: NOX 4 forward 5′-[…]-3 and reverse 5′-[…]-3′ and NOS2 forward 5′-[…]-3′ and reverse 5′-[…]-3′. Amplification was completed using StepOne Real-Time PCR System (Thermo Fisher Scientific, Chelmsford, MA, USA). The relative changes in the levels of mRNA expression were quantified by using the 2^−ΔΔCT method.
(§6) Production of procaspase 8 mRNA was inhibited by 7, 9, and 10, with an important role in extrinsic apoptosis induction remaining for caspase 10. Cellular stress induces intrinsic apoptosis by caspase 9 activation that stimulates the caspase cascade, culminating in activation of executioner caspases 3 and 7 [42]. The mRNA expression of caspase 9 was activated following the treatment with 100 µg/mL of compounds 1–8 but inhibited by 9 and 10.

Series [11] deals with NOX4. The series can be described thus: Gene expression quantification (qPCR). The following applies: HEp-2, 100 µg/mL, 24 h. As to the method: as §5
(§7) One of our approaches consisted of the analysis of NOS2 and NOX4 gene expression (Figure 6). […]
For orientation: Quantitative PCR measures a nucleic acid by following its amplification.

The test system of series [12] is HEp-2 cells. The series can be described thus: Cell cycle analysis (propidium iodide, flow cytometry). The settings on record: HEp-2, 100 µg/mL. As to the method: For cell cycle analysis, a suspension of 7.5 × 10^4 HEp-2 cells was seeded for 24 h in a 1 cm^2 well in DMEM:F12 containing 10% fetal bovine serum. After recovery, the cells were treated with 50 µg/mL or 100 µg/mL azulene-containing chalcone, and 24 h later, the cells were harvested, fixed in cold ethanol overnight, and stained with RNase A/propidium iodide at a concentration of 1 mg/mL to 100 µg/mL. The events were recorded using the Beckman Coulter flow cytometer and analyzed using FlowJo 7.2.5 software.
The cytotoxicity data were also confirmed by cell cycle analysis. Among the tested compounds, chalcone 10 induced an increase in the G2/M phase starting from a concentration of 50 µg/mL (Supplementary Material Figure S2), the effect increasing slightly with the concentration of the tested compound. The increase in the G2/M phase was also observed in the case of compound 9, but at a higher concentration (100 µg/mL), but this effect was lower (Figure 4).
(In general: In flow cytometry, cells or beads pass a laser one at a time.)

Series [13] relates to caspase 3. In words: Gene expression quantification (qPCR). The settings on record: HEp-2, 100 µg/mL, 24 h. The procedure: as §5
(§8) We observed that the expression of both executioner caspases, caspase 3 (Casp 3), and caspase 7 (Casp 7), was activated by azulene (Figure 5, right). The production of procaspase 3 and 7 mRNA in the case of compounds 9 and 10 was quite reduced, probably correlated with the decreased number of cells.

Series [14] has as its system caspase 7. In words: Gene expression quantification (qPCR). The settings on record: HEp-2, 100 µg/mL, 24 h. As to the method: as §5, §8
For series [15], the system named is caspase 9. The series can be described thus: Gene expression quantification (qPCR). The following applies: HEp-2, 100 µg/mL, 24 h. As to the method:
as §5, §6

Series [16] deals with NOS2. In words: Gene expression quantification (qPCR). The following applies: HEp-2, 100 µg/mL, 24 h. As to the method: as §5, §7

Converted amounts (≈) assume the structure as drawn.

Take `O=C(/C=C/c1cc(Cl)c2cccccc1-2)c1ccc2cccccc1-2` [Compound 7, (E)-1-(Azulen-1-yl)-3-(3-chloroazulen-1-yl)prop-2-en-1-one]: the minimal inhibitory concentration (MIC) was 625 µg/mL (≈ 1820 µM) in [1], 625 µg/mL (≈ 1820 µM) in series [2], 625 µg/mL (≈ 1820 µM) in [3] and 312 µg/mL (≈ 910 µM) in [4]. Further, the Aexp in series [3] is 0.401. In addition, the minimal effective concentration stood at 312 µg/mL in [5], 1250 µg/mL in [6], 625 µg/mL in [7] and 625 µg/mL in [8]. The IC50 at 48 h in series [9] stood at 42.9 µg/mL (≈ 125 µM). Besides, in series [10], the “procaspase 8 mRNA production” value is listed as “inhibited”. The “NOX4 activation (expression)” value in series [11] is on record as “minimal”.
Regarding `Cc1cc(/C=C/C(=O)c2ccc3cccccc2-3)c2cccccc1-2` [Compound 9, (E)-1-(Azulen-1-yl)-3-(3-methylazulen-1-yl)prop-2-en-1-one], the MIC in series [1] was 625 µg/mL (≈ 1940 µM); in series [2] it was 625 µg/mL (≈ 1940 µM); in series [3], 1250 µg/mL (≈ 3880 µM); in [4], 312 µg/mL (≈ 968 µM). In series [3], the Aexp is listed as 0.100. Besides, the minimal effective concentration in series [5] was 312 µg/mL; in series [6], 625 µg/mL; in series [7] it was 625 µg/mL; in series [8], 625 µg/mL. For the same molecule, the IC50 at 48 h in series [9] came out at 52.5 µg/mL (≈ 163 µM). The “effect on G2/M phase” value in series [12] is reported as “increase”. Moreover, the “procaspase 3 mRNA expression” value in series [13] was “quite reduced”. Besides, the “procaspase 7 mRNA expression” value in series [14] is listed as “quite reduced”. The “procaspase 8 mRNA production” value in [10] is on record as “inhibited”. For the same molecule, the “mRNA expression of caspase 9” value in series [15] is on record as “inhibited”. Also, in series [16], the NOS2 expression result is “reduced”.

For orientation: MIC means the lowest concentration that inhibits growth of the organism. The low end stands for greater potency, the high end for weaker potency.
